Experimental findings from PMC8537011 (Journal of Fungi, 2021) are described below.

In the assay the target is T1, PELa (P. expansum Lactonase) (Penicillium expansum, UniProt A0A0A2K035).
T1 construct: gene PEX2_072460
The assay can be described thus: UV absorbance at […] nm, initial rates, Michaelis-Menten fit. The assay is classed as biochemical. Particulars: 100 mM Tris-HCl pH 7.5, NaCl, 100 µM ZnCl2, 25 °C; 0.6 μM enzyme, 0-0.4 mM patulin.

T1 sequence (A0A0A2K035 entry or part of it): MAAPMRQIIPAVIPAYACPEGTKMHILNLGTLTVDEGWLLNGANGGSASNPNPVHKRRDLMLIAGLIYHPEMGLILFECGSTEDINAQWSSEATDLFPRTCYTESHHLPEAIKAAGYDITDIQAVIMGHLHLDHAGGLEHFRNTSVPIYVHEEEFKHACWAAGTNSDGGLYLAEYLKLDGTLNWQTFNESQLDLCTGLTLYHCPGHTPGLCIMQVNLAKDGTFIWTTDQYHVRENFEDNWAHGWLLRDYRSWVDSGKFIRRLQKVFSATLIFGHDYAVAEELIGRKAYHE

Consider `O=C1C=C2C(=CCOC2O)O1` (stereo not shown) [patulin], for which the Km is 377 ± 112 µM.
